Where two headings read alike, the source gives them in different places. Numbered stars: 1 amine (or outer) side, 2 acyl side, 3 side chain; on linkers, the order of the positions; unused ones are H or OH. Bridge positions count the residues as written; N and C are the ends. Square brackets hold non-standard residues; d marks the D form. Peptide text beside a SMILES is read from it. I, II: the chains in the order shown. Actinocin(9to1) = Cc1c2oc3c(C)ccc(C(=O)[*:1])c3nc-2c(C(=O)[*:2])c(N)c1=O; NMeV = CN[C@H](C(=O)O)C(C)C; Sar = CNCC(=O)O
Legend:
Assay type in all cases: cell-based, Escherichia coli
E. coli MG1655 = system: E. coli MG1655; parameters: unit not given here
Method: (§1) The screening strain, DR1234, was established after all desired drug-resistant genes listed in Table 5 had been delivered into the parent E. coli strain, MG1655, by methods described above. Its level of drug resistance was analyzed by the standard minimum inhibitory concentration (MIC) assay in MHB liquid medium (Chantot, et al., 1986, “Antibacterial activity of roxithromycin: a laboratory evaluation,” J. Antibiot, 39(5):660-8) and the result was summarized in Table 7.
(§2) The level of drug resistance of CM166 was estimated by MIC assay carried out in MHB liquid medium and the results were summarized in Table 9. CM166 is resistant to antibacterial agents whose resistant genes have been incorporated into the strain, but not to other antibacterial drugs whose resistant genes are not incorporated.
(§3) The level of drug-resistance of screening strain DR1212 was analyzed by standard MIC assay in MHB liquid medium and the result was summarized in Table 11. Similar to screening strains, DR1234 and CM166, DR1212 is also resistant to drugs whose resistant genes have been introduced.
(§4) The level of drug resistance of these screening strains (both intermediates and finals) was evaluated by standard MIC assay in MHB liquid medium and the result of Strain CM242 is summarized in Table 12.
(§5) The level of drug resistance of screening strains CM400 and CM435 was evaluated by standard MIC assay in MHB liquid medium and the results are summarized in Table 13. According to the MIC results, CM435 is hypersensitive to Bleomycin, Daunorucibin, Coumermycin A1 and Erythromycin. Screening strain CM435 and others, which are hypersensitive to certain types of antimicrobial agents, are advantageous in detecting bioactive compounds with low concentration in the screening system.

[1] = system: E. coli screening strain DR1234; parameters: unit not given here
Method: as §1

[2] = system: E. coli screening strain CM166; parameters: unit not given here
From the text: as §2

[3] = system: E. coli screening strain DR1212; parameters: unit not given here
Method: as §3

[4] = system: E. coli screening strain CM242; parameters: unit not given here
Method: as §4

[5] = system: E. coli screening strain CM400; parameters: unit not given here
Method: as §5

[6] = system: E. coli screening strain CM435; parameters: Minimal inhibitory concentrations (MIC90) CM435: unit not given here
[7] = system: lacZ reporter gene of the screening strains (CM191, CM242); assay: S-Gal staining assay on solid medium; settings: for lacZ reporter gene expression (S-Gal, blue-colored rings): screening strains on solid medium, drug-impregnated disks, PETG to suppress background
From the text: The screening strains' responses to DNA damaging agents were further confirmed by S-Gal staining assay. When mitomycin C and streptonigrin (both were well-known DNA damaging drugs) and S-Gal, the indicator, were applied to the screening strains growing on solid medium, blue-colored rings were visible around colonies in drug-impregnated disks. […] Actinomycin D was an exception. CM242 was not sensitive to this drug, although it disrupts DNA structure. PETG (2-phenyethyl B-D-thiogalactoside, Sigma, St Louis Mo.), was used in this experiment to suppress unspecific background activity.

[8] = system: BW25113 strain containing drug-resistant genes inserted into the bioA locus; assay: drug resistance characterization of strain with Tn7 cassette in bioA locus; settings: for resistance conferred: streptothricin at 5 ug/ml, spectinomycin at 100 ug/ml; for resistance of strains having the promoter substitute: sat promoter replaced by Ptrc
From the text: Therefore, a functional copy was introduced by homologous recombination as described hereafter. The drug-resistant gene of interest was synthesized in vitro using PCR with oligonucleotide primers that contained homologous sequences to the target genes and an additional ˜50 by homologous to a particular chromosomal site of the recipient strain. For instance, to insert the Tn7-associated resistance gene cassette dhfrI-sat-aadA into the bioA gene locus of the recipient strain, the primers listed in Table 6 were used. The capitalized portions of these primers hybridized to Tn7 template DNA upstream and downstream of the resistance gene cassette and allowed PCR amplification of the target fragment (Roche (Mannheim, Germany) Long Template PCR System). The ˜50 by additional sequence of these oligonucleotides (low case) afforded regions of homology with the chromosomal target site of the recipient, in this instance, the bioA gene locus (Table 6). The PCR product of the above reaction was introduced into a specialized strain, BW25113 (obtained from the E. coli Genetic Stock Center, strain # 7739) by standard electroporation following the manufacturer's instruction of BioRad (Hercules, Calif.) Gene Pulser, model #1652076, for standard electroporation of E. coli. Double-crossover homologous recombination, mediated by the bacteriophage lambda Red recombinase present in the strains pKD46 [#7630], pKD78 [#7989] or pKD119 [#7990], occurred between the “bioA” locus of the recipient strain and the PCR products via their homologous regions designed in the PCR primers as described above, resulting in the insertion of the drug resistance cassette into the bioA locus of the chromosome (FIG. 3, item 315). […] Once verified by drug resistance characterization and diagnostic PCR assay (see above), the drug resistance-encoding locus from the BW25113/pKD46 strain was introduced into the same locus of the recipient screening strain by standard P1 transduction as described above, also see FIG. 3, item 310.
To increase the gene expression level, the T7 promoter was used to replace the weak promoter of sat gene.

Compound | Minimal inhibitory concentrations (MIC90) MG1655 (E. coli MG1655; Table 7, MHB medium) | Minimal inhibitory concentrations (MIC90) MG1655 (E. coli MG1655; Table 9, MHB medium) | Minimal inhibitory concentrations (MIC90) MG1655 (E. coli MG1655; Table 11, MHB medium) | Minimal inhibitory concentrations (MIC90) MG1655 (E. coli MG1655; Table 13, MHB medium) | Minimal inhibitory concentrations (MIC90) MG1655 (E. coli MG1655; second Table 12, MHB medium) | Minimal inhibitory concentrations (MIC90) DR1234 ([1]; Table 7, MHB medium) | Minimal inhibitory concentrations (MIC90) CM166 ([2]; Table 9, MHB medium) | Minimal inhibitory concentrations (MIC90) DR1212 ([3]; Table 11, MHB medium) | Minimal inhibitory concentrations (MIC90) CM242 ([4]; second Table 12, MHB medium) | Minimal inhibitory concentrations (MIC90) CM400 ([5]; Table 13, MHB medium) | Minimal inhibitory concentrations (MIC90) CM435 ([6]; Table 13, MHB medium) | also measured
Cc1c2oc3c(C)ccc(C(=O)N[C@@H]4C(=O)N[C@H](C(C)C)C(=O)N5CCC[C@H]5C(=O)N(C)CC(=O)N(C)[C@@H](C(C)C)C(=O)O[C@@H]4C)c3nc-2c(C(=O)N[C@@H]2C(=O)N[C@H](C(C)C)C(=O)N3CCC[C@H]3C(=O)N(C)CC(=O)N(C)[C@@H](C(C)C)C(=O)O[C@@H]2C)c(N)c1=O [Actinomycin D] (I: T[dV]P[Sar][NMeV] / II: T[dV]P[Sar][NMeV]; ester I:1-I:C, II:1-II:C; linker I:N-II:N via Actinocin(9to1)) | 200 | 200 | 200 | 256 | 200 | 100 | 50 | 50.0 | 200 | 256 | 256 | sensitivity of CM242 reporter to the drug ([7]; CM242, S-Gal staining): not sensitive
CCn1cc(C(=O)O)c(=O)c2ccc(C)nc21 [Nalidixic Acid] | 6.3 | 6.3 | 6.3 | 8 | 6.3 | 400 | 800 | 50 | >400 | >64 | >64 | lacZ reporter gene expression (S-Gal, blue-colored rings) [7]: not expressed
CN[C@@H]1[C@H](O)[C@H](NC)[C@H]2O[C@@]3(O)C(=O)C[C@@H](C)O[C@H]3O[C@@H]2[C@H]1O [Spectinomycin] | 6.3-12.5 | 6.3-12.5 | 6.3-12.5 | 16 | 6.3-12.5 | >400 | >400 | >400 | >400 | >64 | >64 | resistance conferred ([8]; native sat promoter): not; resistance of strains having the promoter substitute [8]: resistant
COc1cc(Cc2cnc(N)nc2N)cc(OC)c1OC [Trimethoprim] | – | – | – | – | – | – | – | – | – | – | – | Minimal inhibitory concentrations (MIC90) DR1234 [1]: >400; Minimal inhibitory concentrations (MIC90) CM166 [2]: >400; Minimal inhibitory concentrations (MIC90) DR1212 [3]: >400; Minimal inhibitory concentrations (MIC90) CM242 [4]: >400; Minimal inhibitory concentrations (MIC90) CM400 [5]: >64; Minimal inhibitory concentrations (MIC90) CM435 [6]: >64; lacZ reporter gene expression (S-Gal, blue-colored rings) [7]: not expressed; resistance conferred, concentration ([8]; BW25113 with Tn7 cassette in bioA, native sat promoter): at least 10 ug/ml
Bleomycin | ≦0.2-0.4 | ≦0.2-0.4 | ≦0.2-0.4 | 2 | ≦0.2-0.4 | 0.8 | 400 | ≦0.4 | 200 | >64 | 8 | sensitivity of CM435 according to the MIC results ([6]; MHB liquid medium): hypersensitive
Gentamicin | 0.8 | 0.8 | 0.8 | 1 | 0.8 | 400 | >400 | 200 | 100 | >64 | >64 | –
Neomycin | 0.8 | 0.8 | 0.8 | 2 | 0.8 | 100 | 25 | 25 | 50 | 16 | 8 | –
Streptothricin | 0.4-1.6 | 0.4-1.6 | 0.4-1.6 | 2 | 0.4-1.6 | 400 | 400 | 200 | >400 | >64 | 64 | resistance conferred ([8]; native sat promoter): not; resistance of strains having the promoter substitute [8]: resistant

Source: patent US20100311107A1, “Ultra-High Throughput Screening of Natural Products” (priority 2004, published 2010)
